Experimental data published in PubChem BioAssay (NCI).
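GI50 = concentration required for 50% inhibition of growth. TGI: concentration producing complete growth inhibition.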

What was measured:
Experiment in all cases: growth of human tumour cells (NCI), 384-well format
OVCAR-3 ovarian = test system: OVCAR-3 ovarian
HL-60(TB) leukemia = test system: HL-60(TB) leukemia
TK-10 renal = test system: TK-10 renal
HCT-116 colon = test system: HCT-116 colon
NCI/ADR-RES ovarian = test system: NCI/ADR-RES ovarian
UACC-62 melanoma = test system: UACC-62 melanoma
SNB-19 CNS = test system: SNB-19 CNS
COLO 205 colon = test system: COLO 205 colon
U251 glioblastoma = test system: U251 glioblastoma
OVCAR-8 ovarian = test system: OVCAR-8 ovarian
KM12 colon = test system: KM12 colon
SK-MEL-5 melanoma = test system: SK-MEL-5 melanoma
HCT-15 colon = test system: HCT-15 colon

Compound | GI50 (OVCAR-3 ovarian) [µM] | TGI (OVCAR-3 ovarian) [µM] | GI50 (HL-60(TB) leukemia) [µM] | TGI (HL-60(TB) leukemia) [µM] | GI50 (TK-10 renal) [µM] | TGI (TK-10 renal) [µM] | GI50 (HCT-116 colon) [µM] | TGI (HCT-116 colon) [µM] | GI50 (NCI/ADR-RES ovarian) [µM] | TGI (NCI/ADR-RES ovarian) [µM] | GI50 (UACC-62 melanoma) [µM] | TGI (UACC-62 melanoma) [µM] | GI50 (SNB-19 CNS) [µM] | TGI (SNB-19 CNS) [µM] | GI50 (COLO 205 colon) [µM] | TGI (COLO 205 colon) [µM] | GI50 (U251 glioblastoma) [µM] | TGI (U251 glioblastoma) [µM] | GI50 (OVCAR-8 ovarian) [µM] | TGI (OVCAR-8 ovarian) [µM] | also measured
CC1=C(c2cccc(O)c2)[C@H](c2ccc(OCCN3CC(CF)C3)cc2)Oc2ccc(O)cc21 | 4.05 | 15.4 | 1.86 | 3.29 | 5.15 | 17.6 | 3.62 | 13.8 | 16.2 | 29.8 | 4.7 | 16.4 | 10.5 | 22.3 | 3.09 | 8.69 | 5.35 | 17.1 | 10.1 | 21.8 | GI50 (KM12 colon): 3.21 µM; TGI (KM12 colon): 10.2 µM; GI50 (SK-MEL-5 melanoma): 1.68 µM; TGI (SK-MEL-5 melanoma): 3.07 µM; GI50 (HCT-15 colon): 3.57 µM; TGI (HCT-15 colon): 13.2 µM
Cc1cc([N+](=O)[O-])c(NS(=O)(=O)c2cccc(C(=O)O)c2)cc1-c1cccnc1 | > 100 | > 100 | > 100 | > 100 | > 100 | > 100 | > 100 | > 100 | > 100 | > 100 | > 100 | > 100 | > 100 | > 100 | > 100 | > 100 | > 100 | > 100 | > 100 | > 100 | GI50 (KM12 colon): 16.8 µM; TGI (KM12 colon): > 100 µM; GI50 (SK-MEL-5 melanoma): > 100 µM; TGI (SK-MEL-5 melanoma): > 100 µM; GI50 (HCT-15 colon): > 100 µM; TGI (HCT-15 colon): > 100 µM
